Source: BindingDB's records for doi:10.1021/jm970096g (National Cancer Institute-Frederick, 1998)

Legend:
[1] = Cross Resistance (antiviral activity) with V108I (Non nucleoside reverse transcriptase inhibitor) resistant HIV isolate v
[2] = Cross Resistance (antiviral activity) with L74V (nucleoside reverse transcriptase inhibitor) resistant HIV isolate from cytopathic cell killing assay
[3] = Cross Resistance (antiviral activity) with 4xAZT (nucleoside reverse transcriptase inhibitor) resistant HIV isolate from cytopathic cell killing assay
[4] = Cross Resistance (antiviral activity) with A98G (Non nucleoside reverse transcriptase inhibitor) resistant HIV isolate from cytopathic cell killing assay
[5] = Cross Resistance (antiviral activity) with V179D (Non nucleoside reverse transcriptase inhibitor) resistant HIV isolate from cytopathic cell killing assay
[6] = Cross Resistance (antiviral activity) with Y181C (Non nucleoside reverse transcriptase inhibitor) resistant HIV isolate from cytopathic cell killing assay
[7] = Cross Resistance (antiviral activity) with Y188C (Non nucleoside reverse transcriptase inhibitor) resistant HIV isolate from cytopathic cell killing assay
[8] = Cross Resistance (antiviral activity) with K103N (Non nucleoside reverse transcriptase inhibitor) resistant HIV isolate from cytopathic cell killing assay
[9] = Cross Resistance (antiviral activity) with L100I (Non nucleoside reverse transcriptase inhibitor) resistant HIV isolate from cytopathic cell killing assay
[10] = Cross Resistance (antiviral activity) with K101E (Non nucleoside reverse transcriptase inhibitor) resistant HIV isolate from cytopathic cell killing assay
[11] = Cross Resistance (antiviral activity) with V106A (Non nucleoside reverse transcriptase inhibitor) resistant HIV isolate from cytopathic cell killing assay
[12] = Cross Resistance (antiviral activity) with 4xAZT/L100I (Non nucleoside reverse transcriptase inhibitor) resistant HIV isolate from cytopathic cell killing assay
[13] = Cross Resistance (antiviral activity) with 4xAZT/Y181C (Non nucleoside reverse transcriptase inhibitor) resistant HIV isolate from cytopathic cell killing assay
[14] = Cross Resistance (antiviral activity) with NL4-3(WT) NNRTI (Non nucleoside reverse transcriptase inhibitor) resistant HIV isolate from cytopathic cell killing assay
[15] = Cross Resistance (antiviral activity) with A98G (Non nucleoside reverse transcriptase inhibitor) resistant HIV isolate from cytopathic cell killing assay; remark: listed apart in the source
[16] = Cross Resistance (antiviral activity) with K101E (Non nucleoside reverse transcriptase inhibitor) resistant HIV isolate from cytopathic cell killing assay; remark: listed apart in the source
[17] = Cross Resistance (antiviral activity) with V108I (Non nucleoside reverse transcriptase inhibitor) resistant HIV isolate from cytopathic cell killing assay
[18] = Cross Resistance (antiviral activity)of the compound with 4xAZT/Y181C (Non nucleoside reverse transcriptase inhibitor) resistant HIV isolate from cytopathic cell killing assay
[19] = Cross Resistance (antiviral activity) with Y181C (Non nucleoside reverse transcriptase inhibitor) resistant HIV isolate from cytopathic cell killing assay; remark: listed apart in the source

| SMILES | EC50 [1] | EC50 [2] | EC50 [3] | EC50 [4] | EC50 [5] | EC50 [6] | EC50 [7] | EC50 [8] | EC50 [9] | EC50 [10] | EC50 [11] | EC50 [12] | EC50 [13] | EC50 [14] | EC50 [15] | EC50 [16] | EC50 [17] | EC50 [18] | EC50 [19] |
| --- | --- | --- | --- | --- | --- | --- | --- | --- | --- | --- | --- | --- | --- | --- | --- | --- | --- | --- | --- |
| Cc1cccc2c1nc(-c1c(F)cccc1F)n2Cc1c(F)cccc1F | 2.8 µM | 0.1 µM | 0.1 µM | 1.4 µM | 0.5 µM | 6 µM | 2.3 µM | 8.1 µM | 0.3 µM | 16.7 µM | 20 µM | 0.2 µM | 3.5 µM | 0.5 µM | – | – | – | – | – |
| Fc1cccc(F)c1C1SCc2nc3ccccc3n21 (centres undefined) [3-(2,6-difluorophenyl)-4-thia-2,7-diazatricyclo[6.4.0.0^{2,6}]dodeca-1(12),6,8,10-tetraene] | – | 0.7 µM | 1.5 µM | – | 3.1 µM | 16.3 µM | – | > 20 µM | 12.2 µM | – | > 20 µM | 1.7 µM | 14.5 µM | 1.7 µM | 17.7 µM | > 20 µM | 9.7 µM | – | – |
| CC1Cn2c(=O)[nH]c3cccc(c32)CN1 (stereo not drawn) [(S-(+))-8-Methyl-6,7,8,9-tetrahydro-2H-2,7,9a-triaza-benzo[cd]azulen-1-one] | – | 0.2 µM | 0.3 µM | 11 µM | 6.2 µM | 4.2 µM | > 17.4 µM | 17.4 µM | 17.4 µM | – | 12.5 µM | > 17.4 µM | – | 0.3 µM | – | 17.4 µM | 2.4 µM | 2 µM | – |
| Fc1cccc(F)c1Cn1c(-c2c(F)cccc2F)nc2ccccc21 | – | 0.46 µM | 0.27 µM | 4.75 µM | 2.3 µM | – | 11.7 µM | 12.9 µM | – | – | > 20 µM | 0.84 µM | > 20 µM | 1.85 µM | – | > 20 µM | 10.4 µM | – | 15.2 µM |
